Laboratory results as given in patent publication US11524966B1 (Valo Early Discovery, Inc., priority 2017, dated 2022).

biological target: T1, USP25 (USP25-His6, Boston Biochem E-546) (Homo sapiens, UniProt Q9UHP3); experiment: Ubiquitin-Rhodamine 110 Assay for USP25 Activity, Example A-2; type: biochemical; conditions: Ubiquitin-Rhodamine 110 assay, Example A-2; read-out: USP25 A-2 IC50 range
T1 construct: His6; purchased Boston Biochem E-546
T1 sequence (Q9UHP3 1-1055): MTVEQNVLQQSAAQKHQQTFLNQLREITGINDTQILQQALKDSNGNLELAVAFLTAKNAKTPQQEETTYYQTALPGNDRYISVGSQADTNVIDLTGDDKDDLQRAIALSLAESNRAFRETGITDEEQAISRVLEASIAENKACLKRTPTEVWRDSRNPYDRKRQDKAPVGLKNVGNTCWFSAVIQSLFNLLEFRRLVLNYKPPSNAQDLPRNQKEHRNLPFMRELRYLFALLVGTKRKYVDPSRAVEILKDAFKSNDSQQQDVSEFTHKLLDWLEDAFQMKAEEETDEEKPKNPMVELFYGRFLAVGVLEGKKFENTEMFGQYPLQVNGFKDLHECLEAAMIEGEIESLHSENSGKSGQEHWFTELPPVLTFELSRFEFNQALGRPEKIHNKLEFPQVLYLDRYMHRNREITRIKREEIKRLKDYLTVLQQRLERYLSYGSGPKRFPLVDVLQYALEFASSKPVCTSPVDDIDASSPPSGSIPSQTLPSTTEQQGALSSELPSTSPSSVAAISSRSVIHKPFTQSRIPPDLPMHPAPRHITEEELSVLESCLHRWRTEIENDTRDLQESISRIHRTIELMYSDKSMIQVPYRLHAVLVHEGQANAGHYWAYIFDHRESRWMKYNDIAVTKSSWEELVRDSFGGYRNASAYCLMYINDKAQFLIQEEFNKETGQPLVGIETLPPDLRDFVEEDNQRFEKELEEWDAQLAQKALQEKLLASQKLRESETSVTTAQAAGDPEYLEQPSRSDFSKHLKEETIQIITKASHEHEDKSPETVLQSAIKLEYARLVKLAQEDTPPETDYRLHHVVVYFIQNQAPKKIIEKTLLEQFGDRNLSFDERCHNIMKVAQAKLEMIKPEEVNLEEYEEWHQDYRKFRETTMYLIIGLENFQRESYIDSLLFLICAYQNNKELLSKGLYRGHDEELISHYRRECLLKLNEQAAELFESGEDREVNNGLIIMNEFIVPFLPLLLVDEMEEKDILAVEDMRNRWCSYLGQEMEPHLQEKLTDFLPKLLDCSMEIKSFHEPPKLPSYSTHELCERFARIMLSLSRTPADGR
Procedure, shortened: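 USP25-His6 (75 pM) was preincubated with compound (10-point, 3-fold series, 25 μM to 1.3 nM) for 30 min in 20 mM Tris-HCl pH 8.0, 3 mM BME, 0.03% BGG, 0.01% Triton X-100. Ub-Rh110 (25 nM, <<Km) was then added for 45 min at room temperature, citric acid-stopped, and fluorescence read at 485/535 nm.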

Row | SMILES | IC50 [nM]
1 | Cc1ccc2c(N)c(C(=O)N[C@H]3COc4c(F)c(N5CCNCC5)cc(F)c4C3)oc2n1 [Example 68, (R)-3-amino-N-(5,8-difluoro-7-(piperazin-1-yl)chroman-3-yl)-6-methylfuro[2,3-b]pyridine-2-carboxamide] | > 2000
2 | Cc1ccc2c(N)c(C(=O)N[C@H]3COc4cc([C@H]5CCNCC5(F)F)ccc4C3)sc2n1 [Example 69, 3-amino-N-((R)-7-((R)-3,3-difluoropiperidin-4-yl)chroman-3-yl)-6-methylthieno[2,3-b]pyridine-2-carboxamide] | 50 to 200
3 | Cc1ccc2c(N)c(C(=O)N[C@H]3COc4cc([C@@H]5CCNCC5(F)F)ccc4C3)sc2n1 [Example 70, 3-amino-N-((R)-7-((S)-3,3-difluoropiperidin-4-yl)chroman-3-yl)-6-methylthieno[2,3-b]pyridine-2-carboxamide] | 1 to 50
4 | Cc1cnc2c(N)c(C(=O)N[C@H]3COc4cc(N5CCNCC5)ncc4C3)sc2n1 [Example 71, (R)-7-amino-3-methyl-N-(7-(piperazin-1-yl)-3,4-dihydro-2H-pyrano[3,2-c]pyridin-3-yl)thieno[2,3-b]pyrazine-6-carboxamide] | 200 to 2000
5 | Cc1nc2sc(C(=O)N[C@H]3COc4cc(N5CCNCC5)ncc4C3)c(N)c2cc1F [Example 72, (R)-3-amino-5-fluoro-6-methyl-N-(7-(piperazin-1-yl)-3,4-dihydro-2H-pyrano[3,2-c]pyridin-3-yl)thieno[2,3-b]pyridine-2-carboxamide] | 200 to 2000
6 | C[C@@H]1CCc2cc(C(=O)N[C@H]3COc4cc(N5CC6CCC(C5)N6)ccc4C3)cnc2N1 [Example 74, (7R)-N-((3R)-7-(3,8-diazabicyclo[3.2.1]octan-3-yl)chroman-3-yl)-7-methyl-5,6,7,8-tetrahydro-1,8-naphthyridine-3-carboxamide] | 200 to 2000
7 | Cc1ccc2c(N)c(C(=O)N[C@H]3COc4cc(N5C[C@@H]6CC[C@H]5CN6)ncc4C3)sc2n1 [Example 75, N-((R)-7-((1S, 4S)-2 5-diazabicyclo[2.2.2]octan-2-yl)-3,4-dihydro-2H-pyrano[3,2-c]pyridin-3-yl)-3-amino-6-methylthieno[2,3-b]pyridine-2-carboxamide] | 1 to 50
8 | Cc1ccc2c(N)c(C(=O)N[C@H]3COc4cc(N5C[C@H]6CC[C@@H]5CN6)ncc4C3)sc2n1 [Example 76, N-((R)-7-((1 R,4R)-2,5-diazabicyclo[2.2.2]octan-2-yl)-3,4-dihydro-2H-pyrano[3,2-c]pyridin-3-yl)-3-amino-6-methylthieno[2,3-b]pyridine-2-carboxamide] | 50 to 200
9 | Cc1cnc2c(N)c(C(=O)N[C@H]3COc4c(C#N)c(N5CC6CC(C5)N6)cc(F)c4C3)sc2n1 [Example 77, N-((3R)-7-(3,6-diazabicyclo[3.1.1]heptan-3-yl)-8-cyano-5-fluorochroman-3-yl)-7-amino-3-methylthieno[2,3-b]pyrazine-6-carboxamide] | 200 to 2000
10 | Cc1ccc2c(N)c(C(=O)N[C@H]3COc4c(F)c(N5CC6CNCC(C5)O6)cc(F)c4C3)sc2n1 [Example 78, N-((3R)-7-(9-oxa-3,7-diazabicyclo[3.3.1]nonan-3-yl)-5,8-difluorochroman-3-yl)-3-amino-6-methylthieno[2,3-b]pyridine-2-carboxamide] | 1 to 50
11 | Cc1ccc2c(N)c(C(=O)N[C@H]3COc4cc(N5CC6CNCC(C5)O6)c(F)c(F)c4C3)sc2n1 [Example 79, N-((3R)-7-(9-oxa-3,7-diazabicyclo[3.3.1]nonan-3-yl)-5,6-difluorochroman-3-yl)-3-amino-6-methylthieno[2,3-b]pyridine-2-carboxamide] | 1 to 50
12 | Cc1ccc2c(N)c(C(=O)N[C@H]3COc4cc([C@H]5CCNC[C@@H]5F)ccc4C3)sc2n1 [Example 80, 3-amino-N-((R)-7-((3R,4R)-3-fluoropiperidin-4-yl)chroman-3-yl)-6-methylthieno[2,3-b]pyridine-2-carboxamide] | 50 to 200
13 | Cc1ccc2c(N)c(C(=O)N[C@H]3COc4cc([C@@H]5CCNC[C@H]5F)ccc4C3)sc2n1 [Example 81, 3-amino-N-((R)-7-((3S,4S)-3-fluoropiperidin-4-yl)chroman-3-yl)-6-methylthieno[2,3-b]pyridine-2-carboxamide] | 50 to 200
14 | Cc1ccc2c(N)c(C(=O)N[C@H]3COc4cc([C@H]5CCNC[C@H]5F)ccc4C3)sc2n1 [Example 82, 3-amino-N-((R)-7-((3S,4R)-3-fluoropiperidin-4-yl)chroman-3-yl)-6-methylthieno[2,3-b]pyridine-2-carboxamide] | 1 to 50
15 | Cc1ccc2c(N)c(C(=O)N[C@H]3COc4cc([C@@H]5CCNC[C@@H]5F)ccc4C3)sc2n1 [Example 83, 3-amino-N-((R)-7-((3R,4S)-3-fluoropiperidin-4-yl)chroman-3-yl)-6-methylthieno[2,3-b]pyridine-2-carboxamide] | 50 to 200
16 | CCn1ccc2cc(C(=O)N[C@H]3COc4c(F)c([C@@H]5CCNC[C@@H]5O)cc(F)c4C3)nnc21 [Example 84, N-((R)-5,8-difluoro-7-((3R,4S)-3-hydroxypiperidin-4-yl)chroman-3-yl)-7-ethyl-7H-pyrrolo[2,3-c]pyridazine-3-carboxamide] | > 2000
17 | CCn1ccc2cc(C(=O)N[C@H]3COc4c(F)c([C@H]5CCNC[C@H]5O)cc(F)c4C3)nnc21 [Example 85, N-((R)-5,8-difluoro-7-((3S,4R)-3-hydroxypiperidin-4-yl)chroman-3-yl)-7-ethyl-7H-pyrrolo[2,3-c]pyridazine-3-carboxamide] | > 2000
18 | CO[C@@H]1CN(c2cc(F)c3c(c2F)OC[C@H](NC(=O)c2sc4nc(C)ccc4c2N)C3)C[C@H]1N [Example 86] | 200 to 2000
19 | CO[C@H]1CN(c2cc(F)c3c(c2F)OC[C@H](NC(=O)c2sc4nc(C)ccc4c2N)C3)C[C@@H]1N [Example 87, 3-amino-N-((R)-7-((3S,4S)-3-amino-4-methoxypyrrolidin-1-yl)-5,8-difluorochroman-3-yl)-6-methylthieno[2,3-b]pyridine-2-carboxamide] | 200 to 2000
20 | Cc1cc(C(F)F)c2c(N)c(C(=O)N[C@H]3COc4cc(N5CC6CNCC(C5)O6)ccc4C3)sc2n1 [Example 88, N-((3R)-7-(9-oxa-3,7-diazabicyclo[3.3.1]nonan-3-yl)chroman-3-yl)-3-amino-4-(difluoromethyl)-6-methylthieno[2,3-b]pyridine-2-carboxamide] | 1 to 50
21 | O=C(N[C@H]1COc2c(F)c(N3CC4CCC(C3)N4)cc(F)c2C1)c1cnc2c(c1)[C@@H]1C[C@@H]1CN2 [Example 89, (1aS, 7bR)-N-((3R)-7-(3 8-diazabicyclo[3.2.1]octan-3-yl)-5,8-difluorochroman-3-yl)-1a,2,3,7b-tetrahydro-1H-cyclopropa[c][1,8]naphthyridine-6-carboxamide] | 50 to 200
22 | O=C(N[C@H]1COc2c(F)c(N3CC4CCC(C3)N4)cc(F)c2C1)c1cnc2c(c1)[C@H]1C[C@H]1CN2 [Example 90, (1aR,7bS)-N-((3R)-7-(3,8-diazabicyclo[3.2.1]octan-3-yl)-5,8-difluorochroman-3-yl)-1a,2,3,7b-tetrahydro-1H-cyclopropa[c][1,8]naphthyridine-6-carboxamide] | 200 to 2000
